What was measured:
Assay type in all cases: in vivo, C57BL/6 mice
[1] = system: mouse acute lung injury model; experiment: Mouse acute lung injury model (LPS), ELISA; details: title: serum (text b290: lung tissues)
Description: In addition to the normal group injected intragastrically with PBS, other mice were injected intraperitoneally with LPS (7.5 mg/kg) to establish acute lung injury models. Three days before model establishment, the parent drug 1 (0.4 and 4 μmol/kg), the hydrochloride 22 (0.4 and 4 μmol/kg), the fumarate 23 (0.4 and 4 μmol/kg) and the positive drug Dex (12 μmol/kg) were administered intragastrically in advance, and LPS (7.5 mg/kg) was injected intraperitoneally half an hour after administration on the third day.
abdominal cavity was opened. The lungs were taken out, and rinsed twice with pre-cooled PBS. […] The remaining tissues were frozen at −70° C. for subsequent use.
20 mg of lung tissues were accurately weighed, rinsed with pre-cooled PBS solution, cut into small pieces by ophthalmic surgical scissors, and put into a glass homogenizer, into which was added 180 μL PBS (containing 1 mM PMSF). The mixture was homogenized at 60 HZ for 180 s, and centrifuged at 3000 rpm/min at 4° C. for 20 min. 1 μL supernatant was taken, the protein concentration of which was measured with Nanodrop and leveled, and could be used for subsequent experiments.

[2] = system: mouse acute kidney injury models; experiment: Mouse acute kidney injury model (folic acid); set-up: Havcr1 mRNA expression / Ngal mRNA expression / Tnf mRNA expression / Il1 mRNA expression / Il6 mRNA expression / α-Sma mRNA expression / Col1a1 mRNA expression / Tgfb1 mRNA expression: scale not given here; BUN (urea level in serum): unit not given here; details: for Scr (creatinine level in serum): in µmol/L (unit assumed); for Col1a1 mRNA expression / Havcr1 mRNA expression / Il1 mRNA expression / Il6 mRNA expression / Ngal mRNA expression / Tgfb1 mRNA expression / Tnf mRNA expression / α-Sma mRNA expression: kidney
Description: Acute kidney injury: The mice were randomly divided into 7 groups, one of which was randomly selected as the normal group, and the other 6 groups were the model group, the parent drug 1 (0.4 and 4 μmol/kg), the hydrochloride 22 (4 μmol/kg), and the fumarate 23 (0.4 and 4 μmol/kg) groups, respectively, with 6 mice in each group. In addition to the mice in the normal group, other mice were injected intraperitoneally with folic acid dissolved in 0.9% NaHCO3 solution (250 mg/kg) to establish mouse acute kidney injury models. 1 h before model establishment, the parent drug 1 (0.4 and 4 μmol/kg), the hydrochloride 22 (4 μmol/kg) and the fumarate 23 (0.4 and 4 μmol/kg) were administered intragastrically for 3 consecutive days. The mice in the normal group and model group were administered intragastrically the same volume of the solvent 0.5% CMC-Na.
(§1) 1 h after the last administration, blood was collected from the venous plexus of fundus oculi, stood at room temperature for 2 h, and centrifuged at 3000 rpm for 20 min. The serum was aspirated, aliquoted, and frozen at −70° C. for subsequent use. After blood collection, the mice were sacrificed by cervical dislocation, and the abdominal cavity was opened. The kidneys were taken out, rinsed twice with pre-cooled PBS after the perirenal fats and capsules were peeled off, and then fixed with 4% paraformaldehyde for 24-48 h, embedded in paraffin and stained with HE. The remaining tissues were frozen at −70° C. for subsequent use.
(§2) μL serum was taken from each sample for the detection of creatinine and urea levels. Samples were added in accordance with the instructions of the kit strictly. After incubation at 37° C., the absorbance value was measured in a microplate reader, and the content levels of detection indicators in each group were calculated according to the standard curve.
(§3) The extraction of total RNA from animal tissues, cDNA synthesis and PCR amplification are as in above examples.

[3] = system: chronic kidney injury models by the unilateral ureteral obstruction method; experiment: Mouse chronic kidney injury model (unilateral ureteral obstruction); details: for BUN (urea level in serum) / Scr (creatinine level in serum): 14 days; for BUN (urea level in serum): in mmol/L (unit assumed); for Scr (creatinine level in serum): in µmol/L (unit assumed); for Col1a1 mRNA expression / Havcr1 mRNA expression / Il1 mRNA expression / Il6 mRNA expression / Ngal mRNA expression / Tgfb1 mRNA expression / Tnf mRNA expression / α-Sma mRNA expression: kidney
From the text: Chronic kidney injury: The mice were randomly divided into 7 groups, one of which was randomly selected as the normal group, and the other 6 groups were the model group, the parent drug 1 (0.4 and 4 μmol/kg), the hydrochloride 22 (4 μmol/kg), and the fumarate 23 (0.4 and 4 μmol/kg) groups, respectively, with 6 mice in each group. In addition to mice in the normal group that had sham operations (i.e., there was no other operations, but only the left ureter was exposed), the other mice were established chronic kidney injury models by the unilateral ureteral obstruction method. Specifically, the abdominal skin was sterilized with iodophor and alcohol in sequence, and the abdominal skin was cut and separated layer by layer. After fully exposing and separating the left ureter, double obstruction was performed at the proximal bladder end of the ureter with a digestible suture line, followed by suture. On the first day of model establishment, the parent drug 1 (0.4 and 4 μmol/kg), the hydrochloride 22 (4 μmol/kg) and the fumarate 23 (0.4 and 4 μmol/kg) were administered intragastrically for 14 consecutive days. The mice in the normal group and model group were administered intragastrically the same volume of the solvent 0.5% CMC-Na.
as §1, §2, §3

Compound: C=C1C(=O)O[C@@H]2[C@@H]3[C@]4(CC[C@@]3(C)O)C[C@]4(C)CC[C@@H]12 [Compound 1]
- IL-1β ([1]; 0.4 μmol/kg): 1824.88 ± 32.73 pg/mL
- IL-6 ([1]; 0.4 μmol/kg): 2760.57 ± 288.02 pg/mL
- IL-1β ([1]; 4 μmol/kg): 945.66 ± 36.71 pg/mL
- IL-6 ([1]; 4 μmol/kg): 1314.91 ± 231.08 pg/mL
- BUN (urea level in serum) ([2]; 0.4 μmol/kg i.g.): 31.46
- Scr (creatinine level in serum) ([2]; 0.4 μmol/kg i.g.): 108.48
- BUN (urea level in serum) ([2]; 4 μmol/kg i.g.): 21.33
- Scr (creatinine level in serum) ([2]; 4 μmol/kg i.g.): 71.95
- Col1a1 mRNA expression ([2]; 0.4 μmol/kg): 1.64
- Havcr1 mRNA expression ([2]; 0.4 μmol/kg): 175.10
- Il1 mRNA expression ([2]; 0.4 μmol/kg): 2.62
- Il6 mRNA expression ([2]; 0.4 μmol/kg): 8.02
- Ngal mRNA expression ([2]; 0.4 μmol/kg): 30.52
- Tgfb1 mRNA expression ([2]; 0.4 μmol/kg): 1.96
- Tnf mRNA expression ([2]; 0.4 μmol/kg): 2.89
- α-Sma mRNA expression ([2]; 0.4 μmol/kg): 1.82
- Col1a1 mRNA expression ([2]; 4 μmol/kg): 1.32
- Havcr1 mRNA expression ([2]; 4 μmol/kg): 99.99
- Il1 mRNA expression ([2]; 4 μmol/kg): 1.72
- Il6 mRNA expression ([2]; 4 μmol/kg): 3.98
- Ngal mRNA expression ([2]; 4 μmol/kg): 20.17
- Tgfb1 mRNA expression ([2]; 4 μmol/kg): 1.36
- Tnf mRNA expression ([2]; 4 μmol/kg): 2.76
- α-Sma mRNA expression ([2]; 4 μmol/kg): 1.42
- BUN (urea level in serum) ([3]; 0.4 μmol/kg i.g.): 18.41
- Scr (creatinine level in serum) ([3]; 0.4 μmol/kg i.g.): 176.35
- BUN (urea level in serum) ([3]; 4 μmol/kg i.g.): 11.01
- Scr (creatinine level in serum) ([3]; 4 μmol/kg i.g.): 104.65
- Col1a1 mRNA expression ([3]; 0.4 μmol/kg): 16.09
- Havcr1 mRNA expression ([3]; 0.4 μmol/kg): 12.56
- Il1 mRNA expression ([3]; 0.4 μmol/kg): 6.05
- Il6 mRNA expression ([3]; 0.4 μmol/kg): 16.52
- Ngal mRNA expression ([3]; 0.4 μmol/kg): 37.82
- Tgfb1 mRNA expression ([3]; 0.4 μmol/kg): 2.04
- Tnf mRNA expression ([3]; 0.4 μmol/kg): 6.41
- α-Sma mRNA expression ([3]; 0.4 μmol/kg): 2.32
- Col1a1 mRNA expression ([3]; 4 μmol/kg): 9.45
- Havcr1 mRNA expression ([3]; 4 μmol/kg): 8.54
- Il1 mRNA expression ([3]; 4 μmol/kg): 3.99
- Il6 mRNA expression ([3]; 4 μmol/kg): 6.50
- Ngal mRNA expression ([3]; 4 μmol/kg): 21.66
- Tgfb1 mRNA expression ([3]; 4 μmol/kg): 1.55
- Tnf mRNA expression ([3]; 4 μmol/kg): 6.59
- α-Sma mRNA expression ([3]; 4 μmol/kg): 1.54

Compound: CN(C)C[C@@H]1C(=O)O[C@H]2[C@H]1CC[C@@]1(C)C[C@]13CC[C@@](C)(O)[C@H]23 [Compound 22]
- IL-1β ([1]; 0.4 μmol/kg): 1570.02 ± 62.95 pg/mL
- IL-6 ([1]; 0.4 μmol/kg): 2348.32 ± 202.75 pg/mL
- IL-1β ([1]; 4 μmol/kg): 708.74 ± 38.40 pg/mL
- IL-6 ([1]; 4 μmol/kg): 1172.00 ± 240.50 pg/mL
- BUN (urea level in serum) ([2]; 4 μmol/kg i.g.): 16.74
- Scr (creatinine level in serum) ([2]; 4 μmol/kg i.g.): 64.94
- Col1a1 mRNA expression ([2]; 4 μmol/kg): 1.18
- Havcr1 mRNA expression ([2]; 4 μmol/kg): 62.86
- Il1 mRNA expression ([2]; 4 μmol/kg): 1.06
- Il6 mRNA expression ([2]; 4 μmol/kg): 1.55
- Ngal mRNA expression ([2]; 4 μmol/kg): 13.05
- Tgfb1 mRNA expression ([2]; 4 μmol/kg): 0.98
- Tnf mRNA expression ([2]; 4 μmol/kg): 2.31
- α-Sma mRNA expression ([2]; 4 μmol/kg): 1.11
- BUN (urea level in serum) ([3]; 4 μmol/kg i.g.): 9.39
- Scr (creatinine level in serum) ([3]; 4 μmol/kg i.g.): 64.50
- Col1a1 mRNA expression ([3]; 4 μmol/kg): 7.30
- Havcr1 mRNA expression ([3]; 4 μmol/kg): 6.29
- Il1 mRNA expression ([3]; 4 μmol/kg): 2.77
- Il6 mRNA expression ([3]; 4 μmol/kg): 3.69
- Ngal mRNA expression ([3]; 4 μmol/kg): 16.14
- Tgfb1 mRNA expression ([3]; 4 μmol/kg): 1.44
- Tnf mRNA expression ([3]; 4 μmol/kg): 5.09
- α-Sma mRNA expression ([3]; 4 μmol/kg): 1.26

Compound: CN(C)C[C@@H]1C(=O)O[C@H]2[C@H]1CC[C@@]1(C)C[C@]13CC[C@@](C)(O)[C@H]23 [Compound 23]
- IL-1β ([1]; 0.4 μmol/kg): 1623.55 ± 32.64 pg/mL
- IL-6 ([1]; 0.4 μmol/kg): 2585.26 ± 273.50 pg/mL
- IL-1β ([1]; 4 μmol/kg): 888.28 ± 35.20 pg/mL
- IL-6 ([1]; 4 μmol/kg): 1288.32 ± 123.80 pg/mL
- BUN (urea level in serum) ([2]; 0.4 μmol/kg i.g.): 30.08
- Scr (creatinine level in serum) ([2]; 0.4 μmol/kg i.g.): 90.69
- BUN (urea level in serum) ([2]; 4 μmol/kg i.g.): 18.95
- Scr (creatinine level in serum) ([2]; 4 μmol/kg i.g.): 50.39
- Col1a1 mRNA expression ([2]; 0.4 μmol/kg): 1.58
- Havcr1 mRNA expression ([2]; 0.4 μmol/kg): 170.08
- Il1 mRNA expression ([2]; 0.4 μmol/kg): 2.07
- Il6 mRNA expression ([2]; 0.4 μmol/kg): 6.47
- Ngal mRNA expression ([2]; 0.4 μmol/kg): 25.75
- Tgfb1 mRNA expression ([2]; 0.4 μmol/kg): 1.64
- Tnf mRNA expression ([2]; 0.4 μmol/kg): 2.60
- α-Sma mRNA expression ([2]; 0.4 μmol/kg): 1.80
- Col1a1 mRNA expression ([2]; 4 μmol/kg): 1.20
- Havcr1 mRNA expression ([2]; 4 μmol/kg): 83.11
- Il1 mRNA expression ([2]; 4 μmol/kg): 1.45
- Il6 mRNA expression ([2]; 4 μmol/kg): 5.61
- Ngal mRNA expression ([2]; 4 μmol/kg): 13.08
- Tgfb1 mRNA expression ([2]; 4 μmol/kg): 1.09
- Tnf mRNA expression ([2]; 4 μmol/kg): 2.42
- α-Sma mRNA expression ([2]; 4 μmol/kg): 0.90
- BUN (urea level in serum) ([3]; 0.4 μmol/kg i.g.): 17.63
- Scr (creatinine level in serum) ([3]; 0.4 μmol/kg i.g.): 157.79
- BUN (urea level in serum) ([3]; 4 μmol/kg i.g.): 9.45
- Scr (creatinine level in serum) ([3]; 4 μmol/kg i.g.): 79.87
- Col1a1 mRNA expression ([3]; 0.4 μmol/kg): 11.79
- Havcr1 mRNA expression ([3]; 0.4 μmol/kg): 11.90
- Il1 mRNA expression ([3]; 0.4 μmol/kg): 5.32
- Il6 mRNA expression ([3]; 0.4 μmol/kg): 14.31
- Ngal mRNA expression ([3]; 0.4 μmol/kg): 35.77
- Tgfb1 mRNA expression ([3]; 0.4 μmol/kg): 1.76
- Tnf mRNA expression ([3]; 0.4 μmol/kg): 7.10
- α-Sma mRNA expression ([3]; 0.4 μmol/kg): 2.02
- Col1a1 mRNA expression ([3]; 4 μmol/kg): 8.27
- Havcr1 mRNA expression ([3]; 4 μmol/kg): 7.25
- Il1 mRNA expression ([3]; 4 μmol/kg): 3.55
- Il6 mRNA expression ([3]; 4 μmol/kg): 5.61
- Ngal mRNA expression ([3]; 4 μmol/kg): 19.42
- Tgfb1 mRNA expression ([3]; 4 μmol/kg): 1.53
- Tnf mRNA expression ([3]; 4 μmol/kg): 7.53
- α-Sma mRNA expression ([3]; 4 μmol/kg): 1.39

From patent US20240124409A1, “GUAIANOLIDE SESQUITERPENE LACTONE DERIVATIVES AND PHARMACEUTICAL USE THEREOF” (NANJING UNIVERSITY OF CHINESE MEDICINE, priority 2021, published 2024)
